Results on 102 compounds are retold here after PubChem BioAssay AID1996.

Molecules are shown by their SMILES. In brackets after ≈: the same amount, converted by molar mass. Some results are limits rather than exact numbers.

The conditions of the series: buffer; pH 7.4; 200.0 µM.
As usually defined, the solubility (kinetic) is solubility judged after dilution from a stock solution rather than from solid. The compound `CN(C)S(=O)(=O)c1cccc(NC(=O)CC23CC4CC(CC(C4)C2)C3)c1` had a kinetic solubility of 0.0108 mg/mL (≈ 28.7 µM).
In the case of `CC1CC(=O)Nc2ccccc2N1S(=O)(=O)c1cccc(F)c1` (configuration not stated) it was 0.03 mg/mL (≈ 89.7 µM); in that of `CC1CCOC2(O1)C(=O)Nc1ccccc12` (configuration not stated), 0.0244 mg/mL (≈ 111 µM).
In the case of `COc1ccc(/C=N/NC(=O)c2cccnc2)c(C(=O)O)c1OC`, the solubility (kinetic) is greater than 0.0494 mg/mL.
Consider `COc1ccc(C(=O)NC2CC(C)(C)NC(C)(C)C2)cc1OC`, for which the solubility (kinetic) was greater than 0.0481 mg/mL.
In the case of `Cc1ccc(NC(=O)CN(C)C(=O)c2ccccn2)cc1` it was greater than 0.0425 mg/mL; in that of `CC1CCN(C(=S)NC(=O)c2ccc(C(C)(C)C)cc2)CC1`, 0.0031 mg/mL (≈ 9.73 µM); in that of `CCOC(=O)c1cnc(COc2ccccc2Cl)[nH]c1=O`, greater than 0.0463 mg/mL.
`CCc1ccc(S(=O)(=O)N2CCN(c3ncccn3)CC2)cc1` displayed a kinetic solubility of 0.0017 mg/mL (≈ 5.11 µM).
`Cc1ccccc1Cn1cc(C)c(=O)[nH]c1=O`: the kinetic solubility came out at 0.0295 mg/mL (≈ 128 µM).
In the case of `CSCc1ccc(C(=O)Nc2ccc(C(N)=O)cc2)cc1` it was 0.0008 mg/mL (≈ 2.66 µM); in that of `O=C(COC(=O)CNC(=O)c1ccc(Cl)cc1)Nc1ccc(Cl)cn1`, 0.0032 mg/mL (≈ 8.37 µM).
Under `O=C(C[n+]1ccccc1)N1CCCc2ccccc21.[Cl-]` stands greater than 0.0433 mg/mL.
Under `Cc1nc(SCC(=O)Nc2ccccc2Cl)c2c(C)c(C)sc2n1` stands 0.0039 mg/mL (≈ 10.3 µM).
For the compound `CC(=O)NCc1ccc(C(=O)O)cc1`, the kinetic solubility was greater than 0.029 mg/mL.
In turn, `COCc1cc(C)nc(Nc2ccccc2OC)c1C#N` returned a solubility (kinetic) of 0.0003 mg/mL (≈ 1.06 µM).
In the case of `COc1ccc(NC(=S)N2CCN(S(C)(=O)=O)CC2)cc1` it was greater than 0.0494 mg/mL.
Under `Cc1ccc(N2CCN(C(=S)Nc3ccccc3C)CC2)cc1` stands 0.0006 mg/mL (≈ 1.84 µM); under `COc1cc(C)c(NC(=S)NCCCN2CCOCC2)cc1OC`, greater than 0.053 mg/mL; under `Cc1ccc(NC(=O)C2CCC(C(C)(C)C)CC2)cc1S(=O)(=O)N1CCOCC1` (configuration not stated), 0.0035 mg/mL (≈ 8.28 µM).
`O=C(CNC(=O)c1ccco1)OCc1ccccc1Cl`: the solubility (kinetic) was greater than 0.0441 mg/mL.
Under `COc1ccc(NC(=O)CN(c2ccccc2OC)S(=O)(=O)c2cccs2)cc1Cl` stands 0.0029 mg/mL (≈ 6.21 µM); under `COC(=O)C1CN(C(=O)C(C)Oc2ccccc2F)c2ccccc2O1` (configuration not stated), greater than 0.0539 mg/mL.
The compound `CCOc1ccc2oc(=O)cc(CN3CCOCC3)c2c1` had a kinetic solubility of 0.0415 mg/mL (≈ 143 µM).
`O=C(NCCCl)C1Cc2c(ccc3ccccc23)O1` (configuration not stated) registered a solubility (kinetic) of 0.0402 mg/mL (≈ 146 µM).
Under `O=C(NCCNC(=O)c1ccco1)c1ccc(Cl)c(Cl)c1` stands 0.0447 mg/mL (≈ 137 µM).
Under `Cc1ccc(NC(=O)Cn2ccnc2)cc1C` stands 0.0304 mg/mL (≈ 133 µM).
In the case of `Cc1ccc(C(=O)OCC(=O)Nc2cccc(Cl)c2C)c(O)c1` it was less than 0.0007 mg/mL; in that of `O=C(Cc1ccccc1[N+](=O)[O-])NCCC1=CCCCC1`, 0.0267 mg/mL (≈ 92.6 µM).
`COC1CCCN(Cc2nc(Cc3ccccc3F)no2)C1` (configuration not stated) had a kinetic solubility of 0.0379 mg/mL (≈ 124 µM).
Under `Clc1cccc(CNc2nc(-c3cccnc3)nc3ccccc23)c1` stands 0.0005 mg/mL (≈ 1.44 µM); under `Cc1ccc(OCC(=O)N2CCCCC2C)c([N+](=O)[O-])n1` (configuration not stated), greater than 0.044 mg/mL.
In the case of `CCCC12CN3CC(CCC)(CN(C1)C3c1ccco1)C2=O` (configuration not stated) it was greater than 0.0454 mg/mL.
Under `CC(=O)Nc1ccc(NC(=O)COC(=O)[C@@H]2CCCN2C(=O)c2cccs2)cc1` stands greater than 0.0623 mg/mL.
As for `CCN(CC(=O)Nc1ccc(C(C)=O)cc1)CC(=O)Nc1ccc2c(c1)OCCO2.O=C(O)C(=O)O`, the kinetic solubility was greater than 0.0752 mg/mL.
Under `Cc1ccc2c(c1)c1c(n2CC(O)CN2CCCCC2C)CCCC1` (configuration not stated) stands 0.0298 mg/mL (≈ 87.5 µM); under `CC(=O)NCCc1nc2ccccc2n1CCOc1cccc(C)c1`, greater than 0.0506 mg/mL.
Under `O=C(Nc1ccncc1)c1c(F)c(F)c(F)c(F)c1F` stands 0.0416 mg/mL (≈ 144 µM); under `O=C1CC(NC(=O)c2ccc(Cl)cc2)C(=O)N1` (configuration not stated), greater than 0.0379 mg/mL; under `COc1cccc(C(=O)N2CCn3c2nc2ccccc23)c1`, greater than 0.044 mg/mL.
Under `Cc1ccc(OCCCN2C(=O)C(=O)c3cc(C)ccc32)cc1` stands less than 0.0007 mg/mL.
For the compound `Cc1ccc2c(C(=O)CN3CCN(C(=O)c4ccco4)CC3)c(C)[nH]c2c1`, the kinetic solubility stood at 0.0146 mg/mL (≈ 40 µM).
In the case of `COc1ccc(-c2nc(N)c(C#N)c(-c3cccnc3)c2C)cc1` it was 0.0028 mg/mL (≈ 8.85 µM); in that of `C#CCn1ccc(O)c(Cc2c(F)cccc2Cl)c1=O`, greater than 0.0438 mg/mL.
Under `N#CCCN1CCN(C(=O)c2c(N)no[n+]2[O-])CC1` stands greater than 0.0399 mg/mL; under `CC1Cc2ccccc2N1C(=O)COC(=O)c1ccc(O)cc1` (configuration not stated), 0.0051 mg/mL (≈ 16.4 µM).
In the case of `COc1ccc(NC(=O)N[C@@H](CCSC)C(=O)O)cc1OC` it was greater than 0.0493 mg/mL; in that of `COc1ccc(NC(=O)COc2ccc3c(c2)CCC3)cc1`, 0.0027 mg/mL (≈ 9.08 µM).
In turn, `O=c1cc[nH]c2ccc([N+](=O)[O-])cc12` gave a solubility (kinetic) greater than 0.0285 mg/mL.
Under `Nc1cc(=O)[nH]c(SCC(=O)c2ccc(O)cc2O)n1` stands greater than 0.044 mg/mL; under `Cl.c1ccc(C2CN3CCSC3=N2)cc1` (configuration not stated), greater than 0.0361 mg/mL.
Under `CC(C)Oc1ccc(/C=C(\C#N)C(=O)NC2CC2)cc1` stands 0.0134 mg/mL (≈ 49.6 µM); under `CC(C)(C)NS(=O)(=O)c1ccc2[nH]c3c(c2c1)CCCCC3`, 0.0088 mg/mL (≈ 27.5 µM).
In the case of `CC(O)c1ccc(Oc2cnccn2)cc1` (configuration not stated) it was greater than 0.0324 mg/mL; in that of `Cc1c(C=O)c2ccccc2n1CCOc1ccccc1F`, less than 0.0006 mg/mL.
In turn, `C[Si](C)(C)n1ccnc1` gave a kinetic solubility of 0.0146 mg/mL (≈ 104 µM).
Turning to `CC(Oc1ccccc1)C(=O)N1CCN=C1SCc1cccc(F)c1` (configuration not stated), the solubility (kinetic) came out at 0.0111 mg/mL (≈ 31 µM).
Under `Cc1ccc(C(O)P(=O)(OC(C)C)c2ccc(N(C)C)cc2)cc1` (configuration not stated) stands greater than 0.0521 mg/mL.
For the compound `Cc1cccc(OCC(=O)OC(C)CN2CCCCC2)c1.Cl` (configuration not stated), the solubility (kinetic) was greater than 0.0492 mg/mL.
In the case of `O=C(NCCCNC(=O)c1ccco1)c1ccc(F)cc1` it was 0.0427 mg/mL (≈ 147 µM); in that of `Cc1ccc(CONC(=O)c2ccc([N+](=O)[O-])cc2)cc1`, 0.0021 mg/mL (≈ 7.34 µM); in that of `O=C(Cc1cccs1)NCc1cccc(Cl)c1`, greater than 0.0399 mg/mL.
In the case of `COc1ccc(/C=C(/NC(=O)c2ccccc2)C(=O)N2CCCC2)cc1` it was greater than 0.0526 mg/mL.
Under `CCOC(=O)N1CCc2c(sc(NC(=O)CN(CC)CC)c2C#N)C1` stands greater than 0.0547 mg/mL; under `Cc1nn(C)c(Cl)c1CN1CCN(C2CCCC2)C(CCO)C1` (configuration not stated), greater than 0.0511 mg/mL; under `Cn1c(C(=O)O)ccc1S(=O)(=O)N1CCCCCC1`, greater than 0.043 mg/mL.
On to `O=C1Cc2ccccc2C(c2c(Cl)cccc2Cl)N1` (configuration not stated), for which the kinetic solubility is less than 0.0006 mg/mL.
In the case of `CCc1ccc(/C=C/c2c([N+](=O)[O-])c(=O)n(C)c(=O)n2C)cc1` it was 0.0076 mg/mL (≈ 24.1 µM); in that of `CC(=O)c1ccc(Nc2nc(C)cc(C)n2)cc1`, 0.0056 mg/mL (≈ 23.2 µM).
`CC(NC(=O)CC1CCCCC1)c1ccccc1` (configuration not stated) yielded a kinetic solubility greater than 0.0368 mg/mL.
Under `Cc1ccc(OCCCCNC(C)c2ccccc2)c(C)c1` (configuration not stated) stands 0.0322 mg/mL (≈ 108 µM); under `Cc1nc(N2CCN(c3ccccc3F)CC2)[nH]c(=O)c1C`, 0.0146 mg/mL (≈ 48.3 µM); under `Cc1sc2ncnc(SCC(=O)N3CCOCC3)c2c1C`, 0.0393 mg/mL (≈ 122 µM).
In the case of `CN(C)c1nc(-c2ccccc2)c2cc(Cl)ccc2n1` it was 0.001 mg/mL (≈ 3.52 µM); in that of `COc1ccccc1NC(=O)COC(=O)C1CC2CCCC(C1)C2=O` (configuration not stated), greater than 0.0518 mg/mL; in that of `COc1c(C)cccc1C(=O)NCCCNC(=O)c1ccc(C)nc1`, 0.0468 mg/mL (≈ 137 µM).
Turning to `CCCN(C(=O)CSc1ccccc1C(=O)O)C1CCS(=O)(=O)C1` (configuration not stated), the solubility (kinetic) was greater than 0.0557 mg/mL.
Under `O=C(c1ccccc1)C(O)C(c1ccccc1)N1CCOCC1` (configuration not stated) stands greater than 0.0467 mg/mL.
In the case of `CCn1cc(C(=O)OC)c(=O)c2ccc(C)nc21` it was 0.0364 mg/mL (≈ 148 µM); in that of `Cn1c(N)c(C(=O)COC(=O)c2ccccc2C(=O)c2ccc(Cl)c([N+](=O)[O-])c2)c(=O)n(C)c1=O`, 0.0032 mg/mL (≈ 6.39 µM).
On to `O=S(=O)(NCc1ccccn1)c1ccc2ccccc2c1`, for which the kinetic solubility was determined as 0.0369 mg/mL (≈ 124 µM).
Under `O=C(Nc1ccccc1Br)C1CCN(S(=O)(=O)c2cccs2)CC1` stands 0.0078 mg/mL (≈ 18.2 µM).
In the case of `CC(=O)Nc1ccc(NC(=O)COC(=O)C2CCC(C(C)(C)C)CC2)cc1` (configuration not stated) it was 0.0037 mg/mL (≈ 9.88 µM); in that of `Cc1ccccc1NC(=O)CC(=O)Nc1ccccc1C`, greater than 0.0424 mg/mL.
`COc1cccc(NC(=O)CN(C)C(=O)C2CC3C=CC2C3)c1` (configuration not stated) gave a kinetic solubility greater than 0.0472 mg/mL.
Under `Cc1ccc(-c2nc3ncccc3o2)cc1NC(=O)c1ccc([N+](=O)[O-])o1` stands 0.0017 mg/mL (≈ 4.67 µM); under `O=c1[nH]cnc2sc3c(c12)CN(Cc1ccccc1)CC3`, 0.0213 mg/mL (≈ 71.6 µM); under `COCCNC(=O)c1cccc(NC(=O)C2=C(C)OCCS2)c1`, greater than 0.0505 mg/mL.
Under `CCN(C(=S)NC(=O)c1ccco1)c1cccc2ccccc12` stands 0.0465 mg/mL (≈ 143 µM).
In the case of `Cc1ccc(NC(=O)O/N=C/c2ccc(N(C)C)cc2)cc1` it was 0.0011 mg/mL (≈ 3.7 µM); in that of `Cc1c(Cl)cn2c(=O)cc(CN3CCN(c4ccc(F)cc4)CC3)nc2c1Cl`, 0.005 mg/mL (≈ 11.9 µM); in that of `Cc1ccc(OCC(=O)NCCc2c[nH]c3ccccc23)cc1`, 0.0049 mg/mL (≈ 15.9 µM).
For `COC(=O)c1cnc(Nc2cc(C)ccc2OC)c2ccccc12`, the kinetic solubility turned out to be 0.0007 mg/mL (≈ 2.17 µM).
`CC(=O)c1cccc(N=Cc2c(O)c3ccccc3oc2=O)c1` displayed a kinetic solubility of 0.0112 mg/mL (≈ 36.4 µM).
Take `CC(C)CC1(C)NC(=O)N(CC(=O)Nc2ccc3c(c2)CCC3)C1=O` (configuration not stated): the solubility (kinetic) is greater than 0.0515 mg/mL.
In the case of `CC1=NN(C(=O)CCc2ccccc2)C(O)(c2ccncc2)C1` (configuration not stated) it was greater than 0.0464 mg/mL; in that of `O=C(CSc1cc(Cl)ccc1Cl)NC1CCCC1`, 0.0036 mg/mL (≈ 11.8 µM).
As for `COC(=O)C1CCCN1S(=O)(=O)c1ccc([N+](=O)[O-])cc1` (configuration not stated), the kinetic solubility was greater than 0.0471 mg/mL.
Under `Cc1ccc(NC(=S)Nc2ccc3[nH]c(=O)[nH]c3c2)cc1C` stands 0.0179 mg/mL (≈ 57.3 µM); under `CCc1ccc(C(C)NC(=S)NC2CCCCC2)cc1` (configuration not stated), 0.0114 mg/mL (≈ 39.2 µM); under `CCOC(=O)c1c(C)[nH]c(C(=O)COc2ccc3ccc(=O)oc3c2)c1C`, 0.0092 mg/mL (≈ 24.9 µM).
Under `COc1cccc(C(=O)N(C)C(C)c2nc3ccccc3s2)c1` (configuration not stated) stands greater than 0.049 mg/mL.
